# Source: paper PMC10399197, “Insights into Enzymatic Catalysis from Binding and Hydrolysis of Diadenosine Tetraphosphate by E. coli Adenylate Kinase” (Biochemistry, 2023)
# Experiments:
# [1] = target: T1, adenylate kinase (AdK) (Escherichia coli, UniProt P69441); assay: Kd (Figure S1; ITC in the Supporting Information); also 1H-15N HSQC NMR, DEER EPR and […] NMR hydrolysis; type: binding; design: wild-type AdK
# [2] = target: T1, adenylate kinase (AdK); assay: X-ray crystal structure at […] Å (AdK cocrystallized with AP4A; two ADP molecules modeled); type: binding
# T1 sequence (P69441 whole entry): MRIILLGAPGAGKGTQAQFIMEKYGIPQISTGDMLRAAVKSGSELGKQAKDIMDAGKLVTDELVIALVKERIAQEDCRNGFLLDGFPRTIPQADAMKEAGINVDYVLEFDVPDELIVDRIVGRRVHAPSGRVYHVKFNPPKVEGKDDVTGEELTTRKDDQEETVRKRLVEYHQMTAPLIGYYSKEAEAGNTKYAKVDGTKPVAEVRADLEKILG
Compound,Kd [1] [µM],X-ray crystal structure at 1.49 Å (AdK cocrystallized with AP4A); two ADP molecul [2]
Nc1ncnc2c1ncn2[C@@H]1O[C@H](COP(=O)(O)OP(=O)(O)OP(=O)(O)OP(=O)(O)OC[C@H]2O[C@@H](n3cnc4c(N)ncnc43)[C@H](O)[C@@H]2O)[C@@H](O)[C@H]1O [AP4A],14,
Nc1ncnc2c1ncn2[C@@H]1O[C@H](COP(=O)(O)OP(=O)(O)O)[C@@H](O)[C@H]1O [ADP],,the crystals trapped AdK in the closed conformation in complex with two ADP molecules
